Experiment [1] has as its target T1, rat TAAR1 (Rattus norvegicus, UniProt Q923Y9).
T1 construct: expressed in transfected cells; host or cells: HEK293 (ATCC # CRL-1573), stably transfected with pIRESneo2 expression plasmid
The experiment in a line: TAAR1 radioligand binding with [3H]-rac-2-(1,2,3,4-tetrahydro-1-naphthyl)-2-imidazoline, membranes of stably transfected HEK293 cells. Particulars: second value of the cell, read-out: Ki (μM) mouse/rat: rat. The gist of the method:
(§1)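 Competition binding: competitors spanning 10 pM–30 μM displace 60 nM [3H]-rac-2-(1,2,3,4-tetrahydro-1-naphthyl)-2-imidazoline from stably transfected HEK293 membranes (mouse or rat receptor), 30 min, 4 °C, pH 7.0 buffer with Mg2+/Ca2+. Bound label counted after GF/C filtration; 10 μM unlabelled ligand defines non-specific binding.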

The target of experiment [2] is T2, mouse TAAR1 (Mus musculus, UniProt Q923Y8).
T2 construct: expressed in transfected cells; host or cells: HEK293 (ATCC # CRL-1573), stably transfected with pIRESneo2 expression plasmid
The experiment is described as above. Particulars: first value of the cell, read-out: Ki (μM) mouse/rat: mouse. The gist of the method:
as §1

T2 sequence (Q923Y8 whole entry): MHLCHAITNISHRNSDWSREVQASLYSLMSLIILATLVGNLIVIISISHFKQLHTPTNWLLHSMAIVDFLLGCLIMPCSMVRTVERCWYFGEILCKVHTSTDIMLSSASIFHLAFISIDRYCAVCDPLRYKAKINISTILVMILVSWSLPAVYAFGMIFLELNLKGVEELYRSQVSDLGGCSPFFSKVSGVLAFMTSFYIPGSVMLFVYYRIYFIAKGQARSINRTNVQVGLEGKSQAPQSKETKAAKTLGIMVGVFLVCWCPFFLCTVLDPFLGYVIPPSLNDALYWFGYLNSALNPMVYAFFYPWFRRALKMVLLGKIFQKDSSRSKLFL
T1 sequence (Q923Y9 whole entry): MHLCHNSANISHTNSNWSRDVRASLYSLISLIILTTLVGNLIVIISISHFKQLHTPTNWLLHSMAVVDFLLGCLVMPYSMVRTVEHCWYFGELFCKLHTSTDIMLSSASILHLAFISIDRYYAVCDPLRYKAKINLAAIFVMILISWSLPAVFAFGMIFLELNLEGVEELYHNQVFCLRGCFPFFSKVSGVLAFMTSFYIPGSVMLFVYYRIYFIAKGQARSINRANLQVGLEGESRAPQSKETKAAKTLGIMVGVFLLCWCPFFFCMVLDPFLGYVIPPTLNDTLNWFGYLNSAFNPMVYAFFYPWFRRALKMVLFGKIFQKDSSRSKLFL

`NC1=N[C@@H](CCc2ccc(NC(=O)c3ccc(C(F)(F)F)cn3)cc2)CO1` [Example 54, 5-Trifluoromethyl-pyridine-2-carboxylic acid {4-[2-((S)-2-amino-4,5-dihydro-oxazol-4-yl)-ethyl]-phenyl}-amide]: the Ki in experiment [1] was found to be 0.0019 µM; in experiment [2] it was 0.0008 µM.
As to `N#Cc1ccc(C(=O)Nc2ccc(CC[C@H]3COC(N)=N3)cc2)nc1` [Example 119, (S)-N-(4-(2-(2-Amino-4,5-dihydrooxazol-4-yl)ethyl)phenyl)-5-cyanopicolinamide], the Ki in experiment [1] is 0.0044 µM; in experiment [2], 0.0015 µM.
The like results for `NC1=N[C@@H](CCc2ccc(NC(=O)c3cc(Cl)ccn3)cc2)CO1` [Example 90, 4-Chloro-pyridine-2-carboxylic acid {4-[2-((S)-2-amino-4,5-dihydro-oxazol-4-yl)-ethyl]-phenyl}-amide] were, in that order, 0.0003 µM and 0.0007 µM.
The like results for `COc1ccc(C(=O)Nc2ccc(CC[C@H]3COC(N)=N3)cc2)nc1Cl` [Example 168, (S)-N-(4-(2-(2-Amino-4,5-dihydrooxazol-4-yl)ethyl)phenyl)-6-chloro-5-methoxypicolinamide] were, in that order, 0.0009 µM and 0.0014 µM.
The like results for `COc1cncc(C(=O)Nc2ccc(CC[C@H]3COC(N)=N3)cc2)n1` [Example 128, (S)-N-(4-(2-(2-Amino-4,5-dihydrooxazol-4-yl)ethyl)phenyl)-6-methoxypyrazine-2-carboxamide] were, in that order, 0.0054 µM and 0.0079 µM.
Take `NC1=N[C@@H](CCc2ccc(N3Cc4ccc(Cl)cc4C3=O)cc2)CO1` [Example 186, 2-{4-[2-((S)-2-Amino-4,5-dihydro-oxazol-4-yl)-ethyl]-phenyl}-6-chloro-2,3-dihydro-isoindol-1-one]: the Ki in experiment [1] came to 0.001 µM; in experiment [2] it was 0.0029 µM.
As for `NC1=N[C@@H](CCc2ccc(NC(=O)C3CCC3)cc2)CO1` [Example 45, Cyclobutanecarboxylic acid {4-[2-((S)-2-amino-4,5-dihydro-oxazol-4-yl)-ethyl]-phenyl}-amide], the Ki worked out at 0.0017 µM in experiment [1] and 0.0026 µM in experiment [2].
On the same counts, the results for `COc1cc(C(=O)Nc2ccc(CC[C@H]3COC(N)=N3)cc2)nc(Cl)n1` [Example 231, 2-Chloro-6-methoxy-pyrimidine-4-carboxylic acid {4-[2-((S)-2-amino-4,5-dihydro-oxazol-4-yl)-ethyl]-phenyl}-amide] are 0.0013 µM and 0.0009 µM.
With `COc1ccc(CC(=O)Nc2ccc(CC[C@H]3COC(N)=N3)cc2)cc1` [Example 68, N-{4-[2-((S)-2-Amino-4,5-dihydro-oxazol-4-yl)-ethyl]-phenyl}-2-(4-methoxy-phenyl)-acetamide], the Ki in experiment [1] worked out at 0.0019 µM; in experiment [2], 0.0043 µM.
On the same counts, the results for `NC1=N[C@@H](CCc2ccc(NC(=O)c3ccc(Cl)cc3Cl)cc2)CO1` [Example 137, (S)-N-(4-(2-(2-Amino-4,5-dihydrooxazol-4-yl)ethyl)phenyl)-2,4-dichlorobenzamide] are 0.0006 µM and 0.0003 µM.
The like results for `NC1=N[C@@H](CCc2ccc(NC(=O)c3cccc(Br)n3)cc2)CO1` [Example 112, 6-Bromo-pyridine-2-carboxylic acid {4-[2-((S)-2-amino-4,5-dihydro-oxazol-4-yl)-ethyl]-phenyl}-amide] were, in that order, 0.0005 µM and 0.0013 µM.

These data come from patent US8354441B2, “Oxazoline derivatives” (Hoffmann-La Roche Inc., priority 2009, dated 2013).
